Experimental findings from PubChem BioAssay (NCI) are described below.

Among the test systems are ACHN renal; DU-145 prostate; HL-60(TB) leukemia; MDA-MB-231 breast; MOLT-4 leukemia; OVCAR-8 ovarian; PC-3 prostate; SF-295 CNS; SK-MEL-28 melanoma; SW-620 colon.
Test in all cases: NCI tumour cell line growth inhibition, 48 h

Values joined by “and” are separate entries in the source; they are usually repeats but may differ in a detail not shown here. Equal values may be shown once.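 Cultured in 96-well plates, cells were exposed to test compound for 48 hours across five concentrations. GI50 is the concentration that inhibits growth by half. TGI denotes the concentration required for complete inhibition of growth.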

`CC1(C)N=C(N)N=C(N)N1c1ccc(OCCCNC(=O)Nc2cccc(S(=O)(=O)F)c2)c(Cl)c1`: the GI50 in the experiment on ACHN renal is 15.7 µM; with DU-145 prostate it was 2.87 µM; in the experiment on HL-60(TB) leukemia it was 0.441 µM; in the experiment with MDA-MB-231 breast, 7.25 µM; in the experiment on MOLT-4 leukemia, 3.26 µM; in the experiment with OVCAR-8 ovarian, 7.02 µM. Further, the GI50 with PC-3 prostate was 1.23 µM; with SF-295 CNS, 5.8 µM; in the experiment with SK-MEL-28 melanoma it was 8.79 µM; in the experiment on SW-620 colon, 1.64 µM. For the same compound, the TGI in the experiment with ACHN renal, in the experiment with DU-145 prostate, with HL-60(TB) leukemia, with MDA-MB-231 breast, in the experiment with MOLT-4 leukemia and in the experiment with OVCAR-8 ovarian was over 100 µM throughout. Moreover, the TGI with PC-3 prostate, in the experiment on SF-295 CNS, in the experiment with SK-MEL-28 melanoma and in the experiment with SW-620 colon was over 100 µM in each case.
On to `Oc1c(Cl)cc(Cl)cc1/C=N/Nc1nnc(N/N=C/c2cc(Cl)cc(Cl)c2O)c2ccccc12`, for which the GI50 in the experiment with ACHN renal is 0.394 µM; in the experiment on DU-145 prostate, 0.715 µM; in the experiment on MDA-MB-231 breast, 0.479 µM; in the experiment with MOLT-4 leukemia, 0.363 µM; in the experiment on OVCAR-8 ovarian it was 0.406 µM; in the experiment with SK-MEL-28 melanoma, 0.622 µM. Also, in the experiment with SW-620 colon, the GI50 was 0.416 µM. The TGI in the experiment with ACHN renal, with DU-145 prostate, in the experiment with MDA-MB-231 breast, in the experiment with MOLT-4 leukemia, with OVCAR-8 ovarian and with SK-MEL-28 melanoma was over 100 µM in each case. The compound further gave a TGI in the experiment on SW-620 colon of over 100 µM.
Consider `COc1cc(CNCCN2C(=O)c3ccc4c5c(ccc(c35)C2=O)C(=O)N(CCNCc2cc(OC)c(OC)c(OC)c2)C4=O)cc(OC)c1OC`, for which the GI50 in the experiment with ACHN renal is 0.487 µM; with DU-145 prostate it was 0.197 µM; in the experiment on MDA-MB-231 breast it was 0.181 µM; in the experiment with SF-295 CNS, 0.494 µM. In addition, the TGI with ACHN renal turned out to be 1.12 µM; in the experiment with DU-145 prostate it was 0.743 µM; in the experiment on MDA-MB-231 breast it was 0.605 µM; in the experiment with SF-295 CNS, 1.3 µM.
For `COc1cccc(-c2cc(=O)c3cc(N4CCOCC4)ccc3[nH]2)c1`, the GI50 with ACHN renal is 0.0709 µM; with DU-145 prostate, 0.0546 µM; in the experiment with MOLT-4 leukemia, 0.0338 µM; with OVCAR-8 ovarian it was 0.0303 µM; in the experiment on PC-3 prostate it was 0.0281 µM; in the experiment with SF-295 CNS, 0.204 µM. In addition, the values for the GI50 in the experiment on SK-MEL-28 melanoma and in the experiment with SW-620 colon were 0.0248 µM and 0.0125 µM, respectively. Moreover, the TGI in the experiment with ACHN renal is over 100 µM; with HL-60(TB) leukemia, 0.0593 µM and 0.0492 µM; in the experiment on MOLT-4 leukemia, 1.48 µM and 0.17 µM; in the experiment on OVCAR-8 ovarian it was 0.337 µM and 0.152 µM; with PC-3 prostate, over 100 µM; in the experiment with SW-620 colon it was over 100 µM.
`C=C1C(=O)O[C@H]2[C@H](OC(C)=O)[C@@H](C)CCCC3(C)OC3CCC3(CO3)[C@H](O)C[C@@H]12` (stereo partly specified): the GI50 in the experiment with ACHN renal was 10.4 µM; with DU-145 prostate it was 3.92 µM; in the experiment on MDA-MB-231 breast, 8.22 µM; in the experiment on MOLT-4 leukemia, 1.73 µM; in the experiment on OVCAR-8 ovarian, 17.5 µM; in the experiment on PC-3 prostate, 4.4 µM. Further, the GI50 was 11.4 µM in the experiment on SF-295 CNS, 8.36 µM with SK-MEL-28 melanoma and 5.16 µM in the experiment on SW-620 colon. Moreover, the TGI in the experiment on ACHN renal was 22.3 µM; in the experiment with DU-145 prostate it was 14.3 µM; with MDA-MB-231 breast it was 23.9 µM; in the experiment with MOLT-4 leukemia, 4.14 µM; in the experiment with OVCAR-8 ovarian it was over 100 µM; with PC-3 prostate, 18 µM. The TGI with SF-295 CNS turned out to be 28.3 µM; in the experiment on SK-MEL-28 melanoma, 41.6 µM; in the experiment with SW-620 colon, 19.6 µM.
On to `Cn1c2c(c3ccccc31)CCN(CCCCN1CCN(c3ccccc3)CC1)C2=O`, for which the TGI in the experiment on ACHN renal is over 100 µM; with DU-145 prostate it was over 100 µM; in the experiment with HL-60(TB) leukemia it was over 81.3 µM; in the experiment on MOLT-4 leukemia, over 78 µM; with OVCAR-8 ovarian, over 56.2 µM; with PC-3 prostate, 86.6 µM. The TGI with SF-295 CNS is over 100 µM; in the experiment on SK-MEL-28 melanoma, over 61.8 µM; with SW-620 colon, over 56.2 µM.
Consider `CC(=O)CC/C=C(\C)[C@H](O)[C@H](C)C(=O)O[C@H]1C[C@H](C)C=C2C=C[C@@]3(C)O[C@@H](O)CC(=O)[C@]3(C)[C@H]21`, for which the GI50 in the experiment with ACHN renal was 0.339 µM; in the experiment on DU-145 prostate it was 0.332 µM; with HL-60(TB) leukemia, 1.42 µM; with MDA-MB-231 breast, 0.558 µM; in the experiment with OVCAR-8 ovarian it was 0.425 µM; with PC-3 prostate it was 0.61 µM. Also, the GI50 in the experiment on SF-295 CNS was 0.746 µM; with SK-MEL-28 melanoma, 0.364 µM; with SW-620 colon it was 0.449 µM. The TGI is 2 µM in the experiment with ACHN renal; 4.16 µM in the experiment on DU-145 prostate; 4.22 µM with HL-60(TB) leukemia; 3.07 µM in the experiment on MDA-MB-231 breast; 6 µM in the experiment on OVCAR-8 ovarian; 3.31 µM with PC-3 prostate. Besides, the TGI with SF-295 CNS is 6.51 µM; in the experiment on SK-MEL-28 melanoma, 2.18 µM; in the experiment with SW-620 colon, 9.03 µM.
On to `CC(C)(C)c1cc(/C=N/NC(=O)c2ccccc2NC(=O)c2cccs2)c(O)c(C(C)(C)C)c1`, for which the GI50 in the experiment on ACHN renal was 0.413 µM; with DU-145 prostate, 4.13 µM; in the experiment on MDA-MB-231 breast, 1.11 µM; with MOLT-4 leukemia it was 0.872 µM; in the experiment on OVCAR-8 ovarian, 0.895 µM; with PC-3 prostate, 2.8 µM. For the same compound, the GI50 was 0.521 µM in the experiment with SF-295 CNS, 3 µM in the experiment on SK-MEL-28 melanoma and 1.38 µM with SW-620 colon. Moreover, the TGI with ACHN renal was 19.2 µM; in the experiment on DU-145 prostate, over 100 µM; in the experiment with MDA-MB-231 breast it was 19.1 µM; in the experiment with MOLT-4 leukemia it was 20.6 µM; in the experiment on OVCAR-8 ovarian, 11.2 µM; with PC-3 prostate, over 100 µM. For the same compound, the TGI turned out to be 17.9 µM in the experiment on SF-295 CNS, 46.2 µM with SK-MEL-28 melanoma and 17.8 µM with SW-620 colon.
As to `COc1cc(N2C(=O)[C@H](c3ccccc3)C2c2ccc(SC)cc2)cc(OC)c1OC` (stereo partly specified), the GI50 with ACHN renal was 0.0454 µM; in the experiment on DU-145 prostate, 0.0373 µM; with HL-60(TB) leukemia, 0.023 µM; with MDA-MB-231 breast it was 0.0321 µM; in the experiment on MOLT-4 leukemia, 0.04 µM; in the experiment with OVCAR-8 ovarian, 0.0388 µM. Besides, the GI50 in the experiment with PC-3 prostate was 0.0428 µM; with SF-295 CNS, 0.0352 µM; with SW-620 colon it was 0.0382 µM. Also, the TGI with ACHN renal is over 100 µM; in the experiment on DU-145 prostate, over 100 µM; in the experiment with HL-60(TB) leukemia it was 0.0666 µM; in the experiment on MDA-MB-231 breast, 15.2 µM; with MOLT-4 leukemia it was over 100 µM; with OVCAR-8 ovarian, over 100 µM. For the same compound, the TGI was over 100 µM in the experiment with PC-3 prostate, 6.94 µM in the experiment with SF-295 CNS and over 100 µM in the experiment with SW-620 colon.
As to `O=C(O)c1cc(=O)cc(C(=O)O)o1`, the GI50 in the experiment with ACHN renal, in the experiment on DU-145 prostate, in the experiment with HL-60(TB) leukemia, in the experiment on MOLT-4 leukemia, with PC-3 prostate and in the experiment on SF-295 CNS was over 100 µM throughout. Moreover, the GI50 in the experiment on SK-MEL-28 melanoma and in the experiment with SW-620 colon was over 100 µM throughout. Moreover, the TGI in the experiment with ACHN renal, in the experiment with DU-145 prostate, in the experiment on HL-60(TB) leukemia, with MOLT-4 leukemia, in the experiment on PC-3 prostate and with SF-295 CNS was over 100 µM in each case. Further, the TGI with SK-MEL-28 melanoma and in the experiment on SW-620 colon was over 100 µM each time.
With `O=C(O)c1ccc(C(O)(c2ccccc2)c2ccccc2)cc1`, the TGI in the experiment with ACHN renal, in the experiment on DU-145 prostate, in the experiment with HL-60(TB) leukemia, in the experiment on MDA-MB-231 breast, with MOLT-4 leukemia and in the experiment on OVCAR-8 ovarian was over 100 µM in each case. The TGI in the experiment with PC-3 prostate, with SF-295 CNS and in the experiment on SK-MEL-28 melanoma was over 100 µM throughout.
For `Cc1cnc2oc3ccc(O)cc3c2c1-c1ccccc1`, the GI50 with ACHN renal was 18.8 µM; with DU-145 prostate it was 62.5 µM; with HL-60(TB) leukemia it was over 100 µM; in the experiment with MDA-MB-231 breast it was 3.54 µM; in the experiment on OVCAR-8 ovarian it was 99 µM; with PC-3 prostate, 6.51 µM. Further, the GI50 is 23.8 µM with SF-295 CNS, over 100 µM with SK-MEL-28 melanoma and over 100 µM in the experiment with SW-620 colon. The TGI in the experiment on ACHN renal, in the experiment with DU-145 prostate, in the experiment on HL-60(TB) leukemia, in the experiment with MDA-MB-231 breast, with OVCAR-8 ovarian and in the experiment on PC-3 prostate was over 100 µM in each case. The TGI in the experiment on SF-295 CNS is 93.2 µM; with SK-MEL-28 melanoma, over 100 µM; in the experiment with SW-620 colon, over 100 µM.
Take `Cc1cc(N2CCCCC2)nc(NC2CCCC(Nc3ccnc4cc(Cl)ccc34)C2)n1` (stereo unspecified): the GI50 was 1.54 µM in the experiment on ACHN renal; 1.45 µM in the experiment on DU-145 prostate; 1.21 µM in the experiment on MOLT-4 leukemia; 1.73 µM in the experiment with OVCAR-8 ovarian; 1.29 µM with PC-3 prostate; 1.52 µM in the experiment on SF-295 CNS. The GI50 is 1.8 µM in the experiment on SK-MEL-28 melanoma and 1.49 µM with SW-620 colon. Besides, the TGI in the experiment with ACHN renal worked out at 2.98 µM; in the experiment on DU-145 prostate, 3.1 µM; with MOLT-4 leukemia it was 3.7 µM; with OVCAR-8 ovarian, 3.27 µM; in the experiment with PC-3 prostate, 2.86 µM; in the experiment on SF-295 CNS it was 2.92 µM. In addition, the TGI with SK-MEL-28 melanoma amounted to 3.39 µM; with SW-620 colon, 3.14 µM.
